These are literature values, as cited in publication PMC6311893, “Computational prediction of plasma protein binding of cyclic peptides from small molecule experimental data using sparse modeling techniques” (BMC Bioinformatics, 2018).

Like-named read-outs stand apart in the source and are kept apart here.

For the data set, the system named is plasma protein. The settings on record: cited from earlier work.
The mark [1] stands for this setting: fraction bound to plasma protein, small molecule dataset, sheet 1-SM, ref Ingle et al.
The mark [2] stands for this setting: fraction bound to plasma protein, small molecule dataset, sheet 1-SM (Set Dte = test, Dtr = training), ref Ingle et al.
Setting [3] is: fraction bound to plasma protein, small molecule dataset, sheet 1-SM, Set Dtr, ref Ingle et al.

With `CNCC[C@H](Oc1cccc2ccccc12)c1cccs1` [Duloxetine], under setting [1], the “PPB (fb)” value is on record as 0.9.

Regarding `Cc1cccc(C)c1OCC(=O)N[C@@H](Cc1ccccc1)[C@@H](O)C[C@H](Cc1ccccc1)NC(=O)[C@H](C(C)C)N1CCCNC1=O` [lopinavir], the “PPB (fb)” value under setting [2] was 0.99.

Turning to `CCN(CC)CCNC(=O)c1ccc(N)cc1` [Procainamide], the “PPB (fb)” value under setting [3] is on record as 0.16.

With `CN[C@@H]1[C@H](O)[C@H](NC)[C@H]2O[C@@]3(O)C(=O)C[C@@H](C)O[C@H]3O[C@@H]2[C@H]1O` [spectinomycin], the “PPB (fb)” value under setting [1] is reported as 0.05.

As to `CC1(C)[C@@H](OC(=O)CCC(=O)O)CC[C@]2(C)[C@H]3C(=O)C=C4[C@@H]5C[C@@](C)(C(=O)O)CC[C@]5(C)CC[C@@]4(C)[C@]3(C)CC[C@@H]12` [carbenoxolone], the “PPB (fb)” value under setting [2] is 0.99.

`CC(Oc1cc(Cl)cc(Cl)c1)C(=O)NC1C(=O)N2C1SC(C)(C)C2C(=O)O` (stereo not shown) [penicillin59]: the “PPB (fb)” value under setting [1] is reported as 0.97.

In the case of `CC(C)Cc1ccc(C(C)C(=O)NCCOCCO)cc1` (stereo not shown) [JMC_08], under setting [1], the “PPB (fb)” value is reported as 0.83.

Consider `O=C1CN=C(c2ccccc2)c2cc([N+](=O)[O-])ccc2N1` [Nitrazepam], for which the “PPB (fb)” value (plasma) is on record as 0.87.

`CC1(C)SC2C(NC(=O)COc3ccc(F)cc3)C(=O)N2C1C(=O)O` (stereo not shown) [penicillin54]: the “PPB (fb)” value under setting [1] is reported as 0.81.

As to `Oc1ccc(C2CNCCc3c2cc(O)c(O)c3Cl)cc1` (stereo not shown) [fenoldopam], under setting [1], the “PPB (fb)” value is given as 0.88.

With `CCOC(=O)[C@H](CCc1ccccc1)N[C@@H](C)C(=O)N1[C@H](C(=O)O)C[C@@H]2CCC[C@@H]21` [ramipril], the “PPB (fb)” value (plasma) is on record as 0.61.

For the compound `CC(COc1ccccc1)NC(C)C(O)c1ccc(O)cc1` (stereo not shown) [isoxsuprine], the “PPB (fb)” value under setting [1] was 0.

Turning to `CC1(C)SC2C(NC(=O)c3ccc4ccccc4c3)C(=O)N2C1C(=O)O` (stereo not shown) [penicillin65], the “PPB (fb)” value under setting [1] is on record as 0.96.

For the compound `COc1ccc2c(c1)c(CC(=O)OCC(=O)O)c(C)n2C(=O)c1ccc(Cl)cc1` [acemetacin], the “PPB (fb)” value under setting [2] is 0.9.

With `CC(C)(C)NCC(O)COc1cccc2c1CCC(=O)N2` (stereo not shown) [carteolol], under setting [2], the “PPB (fb)” value is given as 0.15.

As to `Nc1nc2c(ncn2CCC(CO)CO)c(=O)[nH]1` [Penciclovir], the “PPB (fb)” value under setting [3] is 0.13.

`CC(CCc1ccccc1)NCC(O)c1ccc(O)c(C(N)=O)c1` (stereo not shown) [Labetalol]: the “PPB (fb)” value under setting [3] is 0.5.

As for `CN/C(=N/CCSCc1nc[nH]c1C)NC#N` [Cimetidine], under setting [3], the “PPB (fb)” value was 0.2.

For the compound `CCC(O)(C(=O)O)c1cc2n(c(=O)c1CO)Cc1cc3c(CN(C)C)c(O)ccc3nc1-2` (stereo not shown) [Topotecan Carboxylic Acid], the “PPB (fb)” value under setting [3] was 0.07.

Turning to `Fc1ccc(C(c2ccc(F)cc2)N2CCN(C/C=C/c3ccccc3)CC2)cc1` [flunarizine], under setting [1], the “PPB (fb)” value is reported as 0.95.

As for `Clc1ccc2nsnc2c1NC1=NCCN1` [Tizanidine], the “PPB (fb)” value under setting [1] was 0.3.

Take `CCCC(=O)Nc1ccc(OCC(O)CNC(C)C)c(C(C)=O)c1` (stereo not shown) [Acebutolol]: the “PPB (fb)” value under setting [3] is reported as 0.24.

As for `C#C[C@]1(O)CC[C@H]2[C@@H]3CCC4=CC(=NO)CC[C@@H]4[C@H]3CC[C@@]21CC` (mixture of isomers) [norelgestromin], under setting [1], the “PPB (fb)” value is 0.97.

Regarding `CCCSc1ccc2nc(NC(=O)OC)[nH]c2c1` [albendazole], the “PPB (fb)” value under setting [2] is recorded as 0.7.

In the case of `CCC1(c2ccccc2)NC(=O)N(C)C1=O` (stereo not shown) [mephenytoin], the “PPB (fb)” value under setting [2] was 0.4.

`CNCCC=C1c2ccccc2CCc2ccccc21` [Nortriptyline]: the “PPB (fb)” value under setting [3] is given as 0.91.

With `O=P(O)(O)C(Cl)(Cl)P(=O)(O)O` [clodronic acid], the “PPB (fb)” value under setting [2] was 0.36.

Take Cefodizime: the “PPB (fb)” value (plasma) is reported as 0.81.

Take `O=C(O)CCNC(=O)c1ccccc1` [Betamipron]: the “PPB (fb)” value under setting [3] was 0.83.

Turning to `CC(C(=O)O)c1ccc(N2Cc3ccccc3C2=O)cc1` (stereo not shown) [indoprofen], the “PPB (fb)” value under setting [1] was 0.99.

As to `CC(Oc1ccc2ccccc2c1)C(=O)NC1C(=O)N2C1SC(C)(C)C2C(=O)O` (stereo not shown) [penicillin69], under setting [1], the “PPB (fb)” value is reported as 0.95.
